The results in this text go back to patent US20040054195A1, “Xanthene derivatives” (priority 2003, published 2004).

Values joined by “and” are separate entries in the source; they are usually repeats but may differ in a detail not shown here. Equal values may be shown once.

The nature of data set [1]: Photostability study: irradiation with a 200 W soft white bulb, fluorescence of aliquots vs. time. It is filed as physicochemical. The conditions noted are these: 50 nM in pH 10 borate buffer, 200 watt soft white bulb at 10 cm, excitation at 459 nm, FIG. 4. As to the method:
FIG. 4. Photostability comparison vs. time (hour) of 5 (*), 8 (▪), fluorescein (Δ) and BODIPY FL (♦); concentration 50 nM in pH 10 borate buffer. Excited at 459 nm for 5 and 8, 488 nm for fluorescein, 505 nm for BODIPY FL.
The photostability study was conducted by irradiating a 50 nM pH 10 sample solution of each dye (1, BODIPY-FL, 5 and 8) using a Hotspot lamp (Cheltenham, Pa.) with a 200W soft white bulb (General Electric, Canada), positioned at a distance of 10 cm between the sample and the bulb. The sample solution was cooled by circulating room temperature water. Fluorescence spectra were recorded on aliquots taken as a function of time.

A short description of data set [2]: UV absorbance spectrum in pH 10 borate buffer. It counts as physicochemical. Particulars: 10 μM, inset of FIG. 3. The method, then:
FIG. 3. Fluorescence spectra. Curve A: BODIPY FL in pH 10 buffer, 50 nM, excited at 505 nm, excitation and emission slit 2.5 nm; Curve B: fluorescein in pH 10 borate buffer, 50 nM, excited at 488 nm, excitation and emission slit 2.5 nm; Curve C: compound 8 in pH 10 borate buffer, 50 nM, excited at 459 nm, excitation slit 2.5 nm, emission slit 8 nm; Curve D: compound 8 in methanol, 50 nM, excited at 459 nm, excitation slit 2.5 nm, emission slit 8 nm; Inset is UV spectrum of 8 in pH 10 borate buffer, 10 μM, peak absorption wavelength: 459 nm and 483 nm.
In FIG. 3 the fluorescence spectra of fluorescein, a BODPIY FL dye (Molecular Probes Inc., Eugene Oreg.), and xanthamide dye 8 are compared. Fluorescein and BODIPY dyes are popular, and many instruments have been set up for their measurement. Thus it is attractive that xanthamide dye 8 has a similar fluorescence emission relative to that of fluorescein and a typical BODIPY dye. […] This adds to the practicality of 8.

In the case of `CN(C)C(=O)c1ccccc1-c1c2ccc(=O)cc-2oc2cc(OCC(=O)O)ccc12` [compound 5, [9-(2-Dimethylcarbamoyl-phenyl)-6-oxo-6H-xanthen-3-yloxy]-acetic acid], the “photostability relative to fluorescein and a typical BODIPY dye” value in data set [1] was “very good photostability”.

As for `COc1ccc2c(-c3ccccc3C(=O)N3CCC(C(=O)O)CC3)c3ccc(=O)cc-3oc2c1` [compound 8, 1-[2-(6-Methoxy-3-oxo-3H-xanthen-9-yl)-benzoyl]-piperidine-4-carboxylic acid], the “photostability relative to fluorescein and a typical BODIPY dye” value in data set [1] was “remarkable photostability”. The absorbance maxima in data set [2] was 459 nm and 483 nm.
